SMILES strings stand for the structures.

The target in the experiment is Pantothenate kinase 3 (Homo sapiens, UniProt Q9H999). The experiment is described as follows: PANK Activity Assay. The procedure:
All the experiments were repeated twice in duplicate and the data were an average ±data range. […] The experiments mimicking the mixture of ligands present in vivo were performed under different conditions.

Chain of Pantothenate kinase 3 (Q9H999 whole entry): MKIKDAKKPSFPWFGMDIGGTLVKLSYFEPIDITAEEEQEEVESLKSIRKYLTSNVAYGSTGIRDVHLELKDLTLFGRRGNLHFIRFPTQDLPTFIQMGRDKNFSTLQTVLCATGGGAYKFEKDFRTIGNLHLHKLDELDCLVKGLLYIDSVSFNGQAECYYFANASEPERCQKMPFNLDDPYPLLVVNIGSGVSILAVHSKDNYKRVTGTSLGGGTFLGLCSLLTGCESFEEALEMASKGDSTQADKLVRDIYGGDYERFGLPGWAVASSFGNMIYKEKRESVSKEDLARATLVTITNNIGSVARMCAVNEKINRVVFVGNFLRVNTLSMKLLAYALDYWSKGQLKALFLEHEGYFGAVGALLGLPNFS

Regarding `O=C(Cc1ccc(C2CC2)c(F)c1)N1CCN(c2nc3ncc(F)cc3o2)CC1` [US12534451, Compound PZ-4351], half-maximal inhibition (IC50) required 1.23 nM.

As usually defined, the IC50 is the concentration that gives 50% inhibition.

The values are drawn from BindingDB's records for patent US12534451 (St. Jude Children''s Research Hospital, Inc., 2026).
